# Assay results reported in patent US8829197B2, “Salts and polymorphs of desazadesferrithiocin polyether analogues as metal chelation agents” (FerroKin Biosciences, Inc., priority 2008, dated 2014).
# Counter-ions that a name gives are not always drawn. Like-named read-outs stand apart in the source and are kept apart here.
# Assays:
# Format in all cases: physicochemical
# [1] = Approximate solubility (aliquots of solvent, visual inspection); settings: for aqueous solubility (in words): salts of (S)-4′-(OH)-DADFT-PE
# Protocol: Weighed samples were treated with aliquots of test solvents at room temperature. Samples were typically sonicated between additions to facilitate dissolution. Complete dissolution of the test material in each solvent was determined by visual inspection. Solubility was estimated based on the total volume of solvent used to provide complete dissolution. The actual solubility may be greater than the value calculated due to the incremental addition of solvent and kinetics of dissolution of the material. […] The solubility is expressed as […] if dissolution occurred after the addition of first aliquot.
# Approximate solubilities are calculated based on the total solvent used to give a solution based on visual inspection. Small aliquots of solvent are added to a weighed sample with agitation. Actual solubilities may be greater because of the volume of the solvent portions utilized or a slow rate of dissolution. Solubilities are reported to the nearest mg/mL. Simulated gastric fluid (SGF) was prepared according to the 2008 USP vol. 1, p 817 except without pepsin.
# Approximate solubilities are calculated based on the total solvent used to give a solution based on visual inspection. Small aliquots of solvent are added to a weighed sample with agitation. Actual solubilities may be greater because of the volume of the solvent portions utilized or a slow rate of dissolution.
# [2] = Relative humidity stress / physical stability on exposure and storage; settings: for hygroscopicity (in words): judged from 75% RH exposure; for physical change when exposed to 75% RH: 75% RH for 3 days
# Text: Following isolation, salts were then characterized by one or more standard techniques including but not limited to x-ray powder diffraction (XRPD), single crystal x-ray diffraction (SC-XRD or XRD), nuclear magnetic resonance (NMR), solubility analysis, and stability testing by moisture sorption/desorption stress analysis and differential scanning calorimetry (DSC).
# [3] = Moisture sorption/desorption (DVS) analysis; settings: for weight loss during desorption: desorption step, 95% to 5% RH; for hygroscopicity (in words): from DVS data
# Protocol: Moisture sorption/desorption (DVS) data were collected on a VTI SGA-100 Vapor Sorption Analyzer. Sorption and desorption data were collected over a range of 5% to 95% relative humidity (RH) at 10% RH intervals under a nitrogen purge. Samples were not dried prior to analysis. Equilibrium criteria used for analysis were less than 0.0100% weight change in 5 minutes, with a maximum equilibration time of 3 hours if the weight criterion was not met. Data were not corrected for the initial moisture content of the samples. NaCl and PVP were used as calibration standards.
# [4] = Water, salts of (S)-4′-(OH)-DADFT-PE (Table 16)
molecule,measurement,setting,value
COCCOCCOCCOc1ccc(C2=N[C@@](C)(C(=O)O)CS2)c(O)c1 [Calcium A],solubility,"[1]; 0.1N HCl in water, simulated gastric fluid, thermodynamic from solid, 0.1N HCl in Water, Table 16, read-out: Solubility",3000 µg/mL
same,solubility,[1]; [4],<500 µg/mL
same,aqueous solubility (in words),[1]; water,negligible
same,deliquescence upon ~75% RH stress,[2]; ~75% RH stress,No apparent deliquescence
"COCCOCCOCCOc1ccc(C2=N[C@@](C)(C(=O)O)CS2)c(O)c1 [Lysine A, 2,6-diammoniohexanoate (S)-2-(2-hydroxy-4-(2-(2-(2-methoxyethoxy)ethoxy)ethoxy)phenyl)-4-methyl-4,5-dihydrothiazole-4-carboxylate]",solubility,[1]; [4],<500 µg/mL
same,aqueous solubility (in words),[1]; water,negligible
same,appearance upon ~75% RH stress,[2]; ~75% RH stress,became oily
same,deliquescence upon ~75% RH stress,"[2]; ~75% RH stress, listed as Lysine salt candidate",No apparent deliquescence
"COCCOCCOCCOc1cccc(C2=N[C@@](C)(C(=O)O)CS2)c1O [Magnesium salt of (S)-3′-(OH)-DADFT-PE, magnesium (S)-2-(2-hydroxy-3-(2-(2-(2-methoxyethoxy)ethoxy)ethoxy)phenyl)-4-methyl-4,5-dihydrothiazole-4-carboxylate hydroxide]",solubility,"[1]; simulated gastric fluid (SGF) without pepsin, simulated gastric fluid, thermodynamic from solid, SGF (simulated gastric fluid, without pepsin), Table 14, read-out: Approximate Solubility",≥ 50000 µg/mL
same,solubility,"[1]; water, thermodynamic from solid, Water, salts of (S)-3′-(OH)-DADFT-PE (Table 14), read-out: Approximate Solubility",≥ 48000 µg/mL
same,solubility,"[1]; water, thermodynamic from solid, water, salts of (S)-3′-(OH)-DADFT-PE, read-out: aqueous solubility",≥ 48000 µg/mL
same,XRPD pattern after exposure to 75% RH,[2]; 75% RH for 8 days,remained unchanged
same,deliquescence when exposed to 75% RH,[2]; 75% RH for 8 days,did not deliquesce
same,hygroscopicity (in words),[2],non-hygroscopic
COCCOCCOCCOc1cccc(C2=N[C@@](C)(C(=O)[O-])CS2)c1O.[Na+] [Sodium salt of (S)-3′-(OH)-DADFT-PE],physical change when exposed to 75% RH,[2],remained physically unchanged
same,hygroscopicity (in words),[2],non-hygroscopic
same,exposure to ambient air,"[2]; lyophilized solid, ambient air (~57% RH) for a few minutes",solids deliquesced
"COCCOCCOCCOc1cccc(C2=N[C@@](C)(C(=O)O)CS2)c1O [magnesium salt Form B, magnesium (S)-2-(2-hydroxy-3-(2-(2-(2-methoxyethoxy)ethoxy)ethoxy)phenyl)-4-methyl-4,5-dihydrothiazole-4-carboxylate hydroxide]",weight loss upon equilibrium at 5% RH,[3]; 5% RH,10.8%
same,additional weight gain during sorption,"[3]; above 65% RH, equilibrium weight not reached",21.2%
same,weight loss during desorption,[3],26.6%
same,weight gain during sorption,[3]; from 5% to 65% RH,5.7%
same,hygroscopicity (in words),[3],hygroscopic
C1CNCCN1.COCCOCCOCCOc1cccc(C2=N[C@@](C)(C(=O)O)CS2)c1O [piperazine salt of (S)-3′-(OH)-DADFT-PE],physical change when exposed to 75% RH,[2],deliquesced
same,hygroscopicity (in words),[2],hygroscopic
"COCCOCCOCCOc1cccc(C2=N[C@@](C)(C(=O)[O-])CS2)c1O.[K+] [potassium salt Form B, potassium (S)-3′-desazadesferrithiocin polyether]",weight loss during desorption,[3],~66%
same,hygroscopicity (in words),[3],extremely hygroscopic
same,average percentage weight gain at plateau of absorption curve,[3]; plateau between 35 and 65% RH,~8%
same,weight gain during sorption,[3]; sorption step from 5% to 95% RH,~70%
same,form conversion on exposure to 40° C.,[2]; 40° C. for 6 days,desolvated into a mixture with Form A
same,form conversion on exposure to P2O5,[2]; P2O5 for 6 days,"converted to a new form, namely Form C"
same,physical stability of the form (in words),[2]; low humidity (P2O5) or elevated temperature (40° C.),unstable
zinc (S)-3′-desazadesferrithiocin polyether [Zinc salt of (S)-3′-(OH)-DADFT-PE],Approximate Solubility,"[1]; SGF (simulated gastric fluid, without pepsin), Table 14",≧39 mg/mL
same,Approximate Solubility,"[1]; Water, salts of (S)-3′-(OH)-DADFT-PE (Table 14)",<1 mg/mL
same,aqueous solubility,"[1]; water, salts of (S)-3′-(OH)-DADFT-PE",~1 mg/mL
same,physical change when exposed to 75% RH,[2],remained physically unchanged
same,hygroscopicity (in words),[2],non-hygroscopic
